Measured values reported in patent US4207330A, “Method for treating hyperglycemia in mammals using arylamino benzoic acids” (The Dow Chemical Company, priority 1979, dated 1980).
Read-outs that look alike come from different tables or passages of the source.

Test system: serum glucose
Assay: Hypoglycemic activity in alanine-induced mice (percent lowering of serum glucose; ED50)
Format: in vivo, male Swiss-Webster mice
Conditions: for inhibition in vivo at 60 mg/kg / ED50: Mus musculus, ip, 1 h; for inhibition in vivo at 60 mg/kg: 60 mg/kg intraperitoneal, 15 min before 10 mmol/kg L-alanine i.p., serum glucose 60 min after compound, 100% = lowering from alanine-induced level to fasted control level, read-out: % Lowering Blood Sugar; for ED50: read-out: ED50 (amount required to obtain a 50% reduction in serum glucose as compared to the control animals)
Description: Alanine is the most glucogenic of the amino acids and also stimulates gluconeogensis in normal animals. Animals suffering from diabetes show an exaggerated hyperglycemic response to a protein or amino acid meal, therefore the hyperglycemic state induced by alanine closely parallels the response of a diabetic mammal.
Fifteen minutes later the same mice were injected intrapertioneally with 10 m moles/kg body weight of L-alanine. Sixty minutes after injection of the active compound, the animals were sacrificed and their sera were analyzed for glucose. The control consisted of both fasted mice and mice injected with alanine. The results are expressed as percent lowering of serum glucose from the alanine induced hyperglycemic level to the fasted control glucose level, i.e. lowering to the fasting glucose level is 100% lowering.
The effective dose (ED50) of several of the subject compounds were determined.
*effective dose represents the amount of the active ingredient required t
obtain a 50% reduction in serum glucose as compared to the control

[1] = 50% reduction in serum glucose vs control animals

SMILES	inhibition in vivo at 60 mg/kg	other results
O=C(O)c1ccc(Nc2ccccc2)cc1 [Example 1, p-anilinobenzoic acid]	88%	–
CC(C)c1ccc(CNc2ccc(C(=O)O)cc2)cc1 [Example 2, 4-(((4-(1-methylethyl)phenyl)methyl)amino)benzoic acid]	78%	–
O=C(O)c1ccc(NCc2ccc(Cl)cc2)cc1 [Example 3, 4-(((4-chlorophenyl)methyl)amino)benzoic acid]	111%	ED50 [1]: 11 mg/kg
Cc1ccc(CNc2ccc(C(=O)O)cc2)cc1 [Example 4, 4-(((4-methylphenyl)methyl)amino)benzoic acid]	144%	ED50 [1]: 15 mg/kg
CCc1ccc(CNc2ccc(C(=O)O)cc2)cc1 [Example 5, 4-(((4-ethylphenyl)methyl)amino)benzoic acid]	96%	ED50 [1]: 15 mg/kg
O=C(O)c1ccc(NCc2ccc(F)cc2)cc1 [Example 6, 4-(((4-fluorophenyl)methyl)amino)benzoic acid]	110%	–
CCOC(=O)c1ccc(NCc2cccs2)cc1 [Example 7, 4-((2-thienylmethyl)amino)benzoic acid ethyl ester]	78%	–
O=C(O)c1ccc(NCc2cccs2)cc1 [Example 8, 4-((2-thienylmethyl)amino)benzoic acid]	51%	–
O=C(O)c1ccc(NCc2cccc(Cl)c2)cc1 [Example 9, 4-(((3-chlorophenyl)methyl)amino)benzoic acid]	64%	–
O=C(O)c1ccc(NCCCc2ccccc2)cc1 [Example 10, 4-((3-phenylpropyl)amino)benzoic acid]	99%	–
O=C(O)c1ccc(NCc2ccc(C(F)(F)F)cc2)cc1 [Example 11, 4-(((4-(trifluoromethyl)phenyl)methyl)amino)benzoic]	106%	–
O=C(O)c1ccc(NCc2ccc(Cl)cc2)cc1.[Na] [Example 12, 4-(((4-chlorophenyl)methyl)amino)benzoic acid sodium]	–	ED50: 6 mg/kg
O=C(O)c1ccc(NCc2cccc(F)c2)cc1 [Example 13, 4-(((3-fluorophenyl)methyl)amino)benzoic acid]	52%	–
O=C(O)c1ccc(NCc2cc(Cl)c(Cl)s2)cc1 [Example 14, 4-(((4,5-dichloro-2-thienyl)methyl)amino)benzoic acid]	83%	–
O=C(O)c1ccc(NCc2ccc(Br)s2)cc1 [Example 15, 4-(((5-bromo-2-thienyl)methyl)amino)benzoic acid]	210%	ED50 [1]: 4.6 mg/kg; hypoglycemic activity at low dosage (in words) (mice, dosages as low as 7.5 mg per kg of body weight): significant hypoglycemic activity; hypoglycemic activity (in words) (mice, compounds tested): highest activity as a hypoglycemic agent of the compounds tested
